Patent US20260265207A1, “DPP1 INHIBITORS WITH POLYCYCLIC LINKERS AND USES THEREOF” (Insmed Incorporated, priority 2023, published 2026)

Tests used:
[1] = target: T1, DPP1 (Homo sapiens, UniProt P53634); assay: Human DPP1 Enzyme IC50 Assay; type: biochemical; design: is first proteolytically processed into its mature form using recombinant human cathepsin L; purchased R&D Systems; settings: activated recombinant human DPP1, H-Gly-Arg-AMC substrate 400 μM, pH 6.0
Procedure: Human DPP1 Enzyme IC50 Assay
Recombinant human DPP1 enzyme (R&D Systems; Minneapolis, MN) is first proteolytically processed into its mature form using recombinant human cathepsin L (R&D Systems) in a buffer consisting of 20 mM citric acid pH 4.5, 150 mM NaCl, 1 mM EDTA and 10 mM DTT. Test articles are applied to activated human DPP1 enzyme in Assay Buffer (25 mM MES pH 6.0, 50 mM NaCl, 5 mM DTT) in a total reaction volume of 125 μL. 25 μL of compound in Assay Buffer plus 5% DMSO is first added to 50 μL of activated human DPP1 enzyme at a concentration of 1 ng/μL and allowed to pre-incubate for 10 minutes at 37° C. after which 50 μL of 1000 μM H-Gly-Arg-AMC substrate (Bachem; St. Torrance, CA) is added, giving final substrate concentration of 400 μM and a final DMSO concentration of 1%. Substrate cleavage is measured for 90 minutes at 37° C., with fluorescence at Excitation/Emission 350/450 nm measured every 5 minutes. DPP1 concentration is interpolated based on its activity relative to a standard curve of activated human recombinant DPP1 enzyme. IC50 values for each compound are calculated via the XLFit (IDBS Version 5.3.1.3) Add-On to Microsoft Excel using the four parameter fit equation y={A+[(B−A)]/[1+((C/x)^D)]}, which appears as equation number 205 (4 Parameter Logistic Model or Sigmoidal Dose-Response Model) in XLFit. Default constraints are used for each Parameter. IC50 is defined as the compound concentration at which […] of enzyme activity is inhibited when compared to the no-compound control. The IC50 table is included in the table below.
Target sequence in this assay (P53634 25-134 limits assumed): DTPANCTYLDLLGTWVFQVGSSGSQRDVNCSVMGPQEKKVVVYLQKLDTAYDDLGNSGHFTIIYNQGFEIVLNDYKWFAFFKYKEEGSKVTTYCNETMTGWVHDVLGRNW
Target sequence in this assay (P53634 231-394 limits assumed): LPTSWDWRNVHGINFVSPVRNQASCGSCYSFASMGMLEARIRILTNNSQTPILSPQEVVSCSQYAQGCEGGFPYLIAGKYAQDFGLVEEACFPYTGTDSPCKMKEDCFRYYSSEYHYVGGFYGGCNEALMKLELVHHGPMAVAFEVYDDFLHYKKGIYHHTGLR
Target sequence in this assay (P53634 395-463 limits assumed): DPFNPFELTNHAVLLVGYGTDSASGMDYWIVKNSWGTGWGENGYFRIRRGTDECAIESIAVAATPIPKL

[2] = target: T2, active mouse DPP1 enzyme (Mus musculus, UniProt P97821); assay: Mouse DPP1 Enzyme IC50 Assay; type: biochemical; settings: active mouse DPP1, H-Gly-Arg-AMC substrate 400 μM, pH 5.5
T2 construct: Test articles are applied to active mouse DPP1 enzyme; purchased R&D Systems
Procedure: Mouse DPP1 Enzyme IC50 Assay
Test articles are applied to active mouse DPP1 enzyme (R&D Systems; Minneapolis, MN) in Assay Buffer (50 mM MES pH 5.5, 50 mM NaCl, 5 mM DTT) in a total reaction volume of 125 μL. 25 μL of compound in Assay Buffer plus 5% DMSO is first added to 50 μL of active mouse DPP1 enzyme at a concentration of 62.5 pg/μL and allowed to pre-incubate for 10 minutes at 37° C. after which 50 μL of 1000 μM H-Gly-Arg-AMC substrate (Bachem; St. Torrance, CA) is added, giving final substrate concentration of 400 μM and a final DMSO concentration of 1%. Substrate cleavage is measured for 90 minutes at 37° C., with fluorescence at Excitation/Emission 350/450 nm measured every 5 minutes. DPP1 concentration is interpolated based on its activity relative to a standard curve of recombinant active mouse DPP1 enzyme. IC50 values for each compound are calculated via the XLFit (IDBS Version 5.3.1.3) Add-On to Microsoft Excel using the four parameter fit equation y=(A+((B-A)/(1+((C/x)^D)))), which appears as equation number 205 (4 Parameter Logistic Model or Sigmoidal Dose-Response Model) in XLFit. Default constraints are used for each Parameter. IC50 is defined as the compound concentration at which 50% of enzyme activity is inhibited when compared to the no-compound control.

[3] = target: T1, DPP1; assay: Cell Assay (DPP1 IC50 values, Table 2); type: cell-based; settings: method not described
Target sequence in this assay (P53634 25-463): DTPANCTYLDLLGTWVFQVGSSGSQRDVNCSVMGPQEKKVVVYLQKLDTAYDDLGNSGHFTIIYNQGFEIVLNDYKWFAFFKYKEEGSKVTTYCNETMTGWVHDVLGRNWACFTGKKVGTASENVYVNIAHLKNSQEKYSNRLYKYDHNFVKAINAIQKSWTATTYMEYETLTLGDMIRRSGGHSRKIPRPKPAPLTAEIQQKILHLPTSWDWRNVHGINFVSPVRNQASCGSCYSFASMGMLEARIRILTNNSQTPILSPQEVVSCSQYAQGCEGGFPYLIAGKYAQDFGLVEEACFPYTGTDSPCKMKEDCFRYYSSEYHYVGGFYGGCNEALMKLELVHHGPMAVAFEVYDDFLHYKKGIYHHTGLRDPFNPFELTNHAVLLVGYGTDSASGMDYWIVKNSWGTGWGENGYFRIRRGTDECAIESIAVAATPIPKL

T2 sequence (P97821 25-134 limits assumed): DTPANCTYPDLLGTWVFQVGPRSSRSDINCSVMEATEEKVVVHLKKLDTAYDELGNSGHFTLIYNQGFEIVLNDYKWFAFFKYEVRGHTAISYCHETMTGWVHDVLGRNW
T2 sequence (P97821 231-393 limits assumed): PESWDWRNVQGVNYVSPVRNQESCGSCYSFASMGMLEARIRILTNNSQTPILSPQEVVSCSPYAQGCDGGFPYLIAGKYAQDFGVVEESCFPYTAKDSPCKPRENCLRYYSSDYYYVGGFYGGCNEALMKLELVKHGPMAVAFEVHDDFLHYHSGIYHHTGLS
T2 sequence (P97821 394-462 limits assumed): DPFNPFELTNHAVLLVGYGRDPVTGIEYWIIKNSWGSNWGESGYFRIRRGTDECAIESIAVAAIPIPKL

SMILES | IC50 [1] [nM] | IC50 [2] [nM] | IC50 [3] [nM]
Cn1c(=O)oc2ccc(-c3cc4cc(C[C@@H](C#N)NC(=O)C5CNCCCO5)ccc4s3)cc21 (stereo partly shown) [Compound 131b] | ≥ 15 | – | ≥ 1.5
Cn1c(=O)oc2ccc(-c3ccc4cc(CC(C#N)NC(=O)[C@@H]5CNCCCO5)ccc4c3)cc21 (stereo partly drawn) [Compound 133b, (2S)—N-{1-cyano-2-[6-(3-methyl-2-oxo-1,3-benzoxazol-5-yl)naphthalen-2-yl]ethyl}-1,4-oxazepane-2-carboxamide] | ≥ 15 | – | ≥ 1.5
Cn1c(=O)oc2ccc(-c3cc4ccc(C[C@@H](C#N)NC(=O)[C@@H]5CNCCCO5)c(F)c4s3)cc21 [Compound 134a] | ≥ 15 | – | ≥ 1.5
CCN1C(=O)Cc2ccc(-c3cc4sc(C[C@@H](C#N)NC(=O)[C@@H]5CNCCCCO5)cc4s3)cc21 [Compound 138b, (2S)—N-[(1S)-1-cyano-2-[5-(1-ethyl-2-oxo-3H-indol-6-yl)thieno[3,2-b]thiophen-2-yl]ethyl]-1,4-oxazocane-2-carboxamide] | ≥ 15 | – | ≥ 1.5
CCN1C(=O)Cc2ccc(-c3cc4sc(C[C@H](C#N)NC(=O)[C@@H]5CNCCCCO5)cc4s3)cc21 [Compound 138c, (2S)—N-[(1R)-1-cyano-2-[5-(1-ethyl-2-oxo-3H-indol-6-yl)thieno[3,2-b]thiophen-2-yl]ethyl]-1,4-oxazocane-2-carboxamide] | ≥ 15 | – | ≥ 1.5
Cn1c(=O)oc2ccc(-c3cc4sc(C[C@@H](C#N)NC(=O)[C@@H]5CNCCCCO5)cc4s3)cc21 [Compound 139b, (2S)—N-[(1S)-1-cyano-2-[5-(3-methyl-2-oxo-1,3-benzoxazol-5-yl)thieno[3,2-b]thiophen-2-yl]ethyl]-1,4-oxazocane-2-carboxamide] | ≥ 15 | – | ≥ 1.5
Cn1c(=O)oc2ccc(-c3cc4sc(C[C@H](C#N)NC(=O)[C@@H]5CNCCCCO5)cc4s3)cc21 [Compound 139c, (2S)—N-[(1R)-1-cyano-2-[5-(3-methyl-2-oxo-1,3-benzoxazol-5-yl)thieno[3,2-b]thiophen-2-yl]ethyl]-1,4-oxazocane-2-carboxamide] | ≥ 15 | – | ≥ 1.5

More lines, now with the values ahead:

IC50 [1] [nM] | IC50 [2] [nM] | IC50 [3] [nM] | SMILES
≥ 15 | – | – | Cn1c(=O)oc2ccc(C34CC(C[C@@H](C#N)NC(=O)[C@@H]5CNCCCO5)(C3)C4)cc21 [Compound 101d]
≥ 15 | – | – | Cn1c(=O)oc2ccc(-c3cc4ccc(C[C@@H](C#N)NC(=O)C5CNCCCO5)cc4s3)cc21 (stereo partly shown) [Compound 112b]
≥ 15 | ≥ 20 | ≥ 1.5 | Cn1c(=O)oc2ccc(-c3ccc4cc(C[C@@H](C#N)NC(=O)[C@@H]5CNCCCO5)sc4c3)cc21 [Compound 113b]
≥ 15 | ≥ 20 | ≥ 1.5 | Cn1c(=O)oc2ccc(-c3ccc4sc(C[C@@H](C#N)NC(=O)C5CNCCCO5)cc4c3)cc21 (stereo partly shown) [Compound 114b]
≥ 15 | ≥ 20 | ≥ 1.5 | Cn1c(=O)oc2ccc(-c3ccc4sc(C[C@@H](C#N)NC(=O)[C@@H]5CNCCCO5)c(F)c4c3)cc21 [Compound 115b]
≥ 15 | ≥ 20 | ≥ 1.5 | Cn1c(=O)oc2ccc(-c3cc4sc(CC(C#N)NC(=O)[C@@H]5CNCCCO5)cc4s3)cc21 (stereo partly drawn) [Compound 118b, (2S)—N-(1-cyano-2-(5-(3-methyl-2-oxo-2,3-dihydrobenzo[d]oxazol-5-yl)thieno[3,2-b]thiophen-2-yl)ethyl)-1,4-oxazepane-2-carboxamide]
≥ 15 | – | ≥ 1.5 | Cn1c(=O)oc2ccc(-c3ccc4cc(CC(C#N)NC(=O)[C@@H]5CNCCCO5)[nH]c4c3)cc21 (stereo partly drawn) [Compound 128b, (2S)—N-(1-cyano-2-(6-(3-methyl-2-oxo-2,3-dihydrobenzo[d]oxazol-5-yl)-1H-indol-2-yl)ethyl)-1,4-oxazepane-2-carboxamide]
≥ 15 | – | ≥ 1.5 | Cn1c(=O)oc2ccc(-c3ccc4c(F)c(C[C@@H](C#N)NC(=O)[C@@H]5CNCCCO5)sc4c3)cc21 [Compound 130b]
5 to 15 | – | ≥ 1.5 | CO[C@@H]1CCNC[C@@H](C(=O)N[C@H](C#N)Cc2cc3sc(-c4ccc5oc(=O)n(C)c5c4)cc3s2)OC1 [Compound 142b]
